Measurements: PubChem BioAssay (NCI)
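48-hour exposure; five concentrations; linearly interpolated endpoints. TGI denotes the concentration required for complete inhibition of growth.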

Columns and labels:
Experiment in all cases: inhibition of tumour cell growth, NCI panel, 48 h
786-0 renal = test system: 786-0 renal
A498 renal = test system: A498 renal
A549 NSCLC = test system: A549 NSCLC
ACHN renal = test system: ACHN renal
BT-549 breast = test system: BT-549 breast
CAKI-1 renal = test system: CAKI-1 renal
CCRF-CEM leukemia = test system: CCRF-CEM leukemia
COLO 205 colon = test system: COLO 205 colon
DLD-1 colon = test system: DLD-1 colon
DMS 114 small cell lung = test system: DMS 114 small cell lung
DMS 273 small cell lung = test system: DMS 273 small cell lung
DU-145 prostate = test system: DU-145 prostate
EKVX NSCLC = test system: EKVX NSCLC
HCC-2998 colon = test system: HCC-2998 colon
HCT-116 colon = test system: HCT-116 colon
HCT-15 colon = test system: HCT-15 colon
HL-60(TB) leukemia = test system: HL-60(TB) leukemia
HOP-18 NSCLC = test system: HOP-18 NSCLC
HOP-62 NSCLC = test system: HOP-62 NSCLC
HOP-92 NSCLC = test system: HOP-92 NSCLC
HS 578T breast = test system: HS 578T breast
HT29 colon = test system: HT29 colon
IGROV1 ovarian = test system: IGROV1 ovarian
K-562 leukemia = test system: K-562 leukemia
KM12 colon = test system: KM12 colon
KM20L2 colon = test system: KM20L2 colon
LOX IMVI melanoma = test system: LOX IMVI melanoma
LXFL 529 NSCLC = test system: LXFL 529 NSCLC
M14 melanoma = test system: M14 melanoma
M19-MEL melanoma = test system: M19-MEL melanoma
MALME-3M melanoma = test system: MALME-3M melanoma
MCF7 breast = test system: MCF7 breast
MDA-MB-231 breast = test system: MDA-MB-231 breast
MDA-MB-435 = test system: MDA-MB-435
MDA-N = test system: MDA-N
MOLT-4 leukemia = test system: MOLT-4 leukemia
NCI-H226 lung = test system: NCI-H226 lung
NCI-H23 lung = test system: NCI-H23 lung
NCI-H460 lung = test system: NCI-H460 lung
NCI-H522 lung = test system: NCI-H522 lung
NCI/ADR-RES ovarian = test system: NCI/ADR-RES ovarian
OVCAR-3 ovarian = test system: OVCAR-3 ovarian
OVCAR-4 ovarian = test system: OVCAR-4 ovarian
OVCAR-5 ovarian = test system: OVCAR-5 ovarian
OVCAR-8 ovarian = test system: OVCAR-8 ovarian
PC-3 prostate = test system: PC-3 prostate
RPMI-8226 leukemia = test system: RPMI-8226 leukemia
RXF 393 renal = test system: RXF 393 renal
RXF-631 renal = test system: RXF-631 renal
SF-268 CNS = test system: SF-268 CNS
SF-295 CNS = test system: SF-295 CNS
SF-539 CNS = test system: SF-539 CNS
SK-MEL-2 melanoma = test system: SK-MEL-2 melanoma
SK-MEL-28 melanoma = test system: SK-MEL-28 melanoma
SK-MEL-5 melanoma = test system: SK-MEL-5 melanoma
SK-OV-3 ovarian = test system: SK-OV-3 ovarian
SN12C renal = test system: SN12C renal
SNB-19 CNS = test system: SNB-19 CNS
SNB-75 CNS = test system: SNB-75 CNS
SNB-78 CNS = test system: SNB-78 CNS
SR leukemia = test system: SR leukemia
SW-620 colon = test system: SW-620 colon
T-47D breast = test system: T-47D breast
TK-10 renal = test system: TK-10 renal
U251 CNS = test system: U251 CNS
UACC-257 melanoma = test system: UACC-257 melanoma
UACC-62 melanoma = test system: UACC-62 melanoma
UO-31 renal = test system: UO-31 renal
XF 498 CNS = test system: XF 498 CNS

`Nc1ccc2c(SCC(=O)Nc3ccccc3-c3ccccc3NC(=O)CSc3c4ccccc4nc4cc(N)ccc34)c3ccccc3nc2c1` was tested. Which TGI (786-0 renal) did it give?
The TGI was 56 µM.

And the TGI (A498 renal)?
Its TGI is 65.9 µM.

What about the TGI (A549 NSCLC) of the same molecule?
Its TGI is over 100 µM.

What about the TGI (ACHN renal) of the same molecule?
The TGI was over 86.6 µM.

And the TGI (BT-549 breast)?
Its TGI is 85.1 µM.

And the TGI (CAKI-1 renal)?
Its TGI is over 83.5 µM.

What about the TGI (CCRF-CEM leukemia) of the same molecule?
The TGI was over 100 µM.

What about the TGI (COLO 205 colon) of the same molecule?
The TGI was 43 µM.

And the TGI (DLD-1 colon)?
The TGI was 38.4 µM.

What about the TGI (DMS 114 small cell lung) of the same molecule?
The TGI was 56.2 µM.

What about the TGI (DMS 273 small cell lung) of the same molecule?
The TGI was over 100 µM.

What about the TGI (DU-145 prostate) of the same molecule?
The TGI was over 58.7 µM.

And the TGI (EKVX NSCLC)?
The TGI was over 100 µM.

And the TGI (HCC-2998 colon)?
Its TGI is 61.7 µM.

What about the TGI (HCT-116 colon) of the same molecule?
Its TGI is 64.5 µM.

And the TGI (HCT-15 colon)?
Its TGI is over 93.8 µM.

And the TGI (HL-60(TB) leukemia)?
The TGI was 36.6 µM.

What about the TGI (HOP-18 NSCLC) of the same molecule?
The TGI was 68.8 µM.

What about the TGI (HOP-62 NSCLC) of the same molecule?
Its TGI is 63.4 µM.

What about the TGI (HOP-92 NSCLC) of the same molecule?
Its TGI is 79.9 µM.

And the TGI (HS 578T breast)?
Its TGI is over 90 µM.

And the TGI (HT29 colon)?
Its TGI is over 100 µM.

What about the TGI (IGROV1 ovarian) of the same molecule?
The TGI was 83 µM.

And the TGI (K-562 leukemia)?
The TGI was 28.3 µM.

What about the TGI (KM12 colon) of the same molecule?
Its TGI is 65.8 µM.

And the TGI (KM20L2 colon)?
The TGI was over 93.5 µM.

And the TGI (LOX IMVI melanoma)?
The TGI was 66.2 µM.

And the TGI (LXFL 529 NSCLC)?
The TGI was 41.3 µM.

What about the TGI (M14 melanoma) of the same molecule?
The TGI was 59 µM.

What about the TGI (M19-MEL melanoma) of the same molecule?
Its TGI is 70.5 µM.

What about the TGI (MALME-3M melanoma) of the same molecule?
The TGI was 56 µM.

What about the TGI (MCF7 breast) of the same molecule?
Its TGI is over 100 µM.

What about the TGI (MDA-MB-231 breast) of the same molecule?
Its TGI is over 84 µM.

And the TGI (MDA-MB-435)?
Its TGI is over 73.5 µM.

What about the TGI (MDA-N) of the same molecule?
The TGI was over 69.5 µM.

And the TGI (MOLT-4 leukemia)?
The TGI was over 44.1 µM.

And the TGI (NCI-H226 lung)?
Its TGI is 72.6 µM.

What about the TGI (NCI-H23 lung) of the same molecule?
The TGI was 39.5 µM.

What about the TGI (NCI-H460 lung) of the same molecule?
The TGI was 97.8 µM.

What about the TGI (NCI-H522 lung) of the same molecule?
Its TGI is 31.8 µM.

What about the TGI (NCI/ADR-RES ovarian) of the same molecule?
The TGI was over 100 µM.

And the TGI (OVCAR-3 ovarian)?
Its TGI is 70.4 µM.

What about the TGI (OVCAR-4 ovarian) of the same molecule?
Its TGI is 78.9 µM.

And the TGI (OVCAR-5 ovarian)?
Its TGI is over 100 µM.

And the TGI (OVCAR-8 ovarian)?
The TGI was 73.2 µM.

What about the TGI (PC-3 prostate) of the same molecule?
Its TGI is 54.6 µM.

What about the TGI (RPMI-8226 leukemia) of the same molecule?
Its TGI is 38.6 µM.

What about the TGI (RXF 393 renal) of the same molecule?
Its TGI is 63.5 µM.

What about the TGI (RXF-631 renal) of the same molecule?
The TGI was over 100 µM.

What about the TGI (SF-268 CNS) of the same molecule?
The TGI was 93.3 µM.

What about the TGI (SF-295 CNS) of the same molecule?
The TGI was 98 µM.

And the TGI (SF-539 CNS)?
Its TGI is 64.8 µM.

What about the TGI (SK-MEL-2 melanoma) of the same molecule?
The TGI was 68 µM.

And the TGI (SK-MEL-28 melanoma)?
The TGI was 52.5 µM.

And the TGI (SK-MEL-5 melanoma)?
The TGI was 30.1 µM.

What about the TGI (SK-OV-3 ovarian) of the same molecule?
The TGI was over 100 µM.

What about the TGI (SN12C renal) of the same molecule?
The TGI was over 87.2 µM.

And the TGI (SNB-19 CNS)?
Its TGI is 44.2 µM.

What about the TGI (SNB-75 CNS) of the same molecule?
The TGI was over 96.4 µM.

And the TGI (SNB-78 CNS)?
Its TGI is over 100 µM.

What about the TGI (SR leukemia) of the same molecule?
The TGI was over 100 µM.

What about the TGI (SW-620 colon) of the same molecule?
Its TGI is 67.4 µM.

And the TGI (T-47D breast)?
The TGI was over 63.3 µM.

And the TGI (TK-10 renal)?
The TGI was 75.3 µM.

And the TGI (U251 CNS)?
The TGI was 66.5 µM.

And the TGI (UACC-257 melanoma)?
Its TGI is 71.9 µM.

And the TGI (UACC-62 melanoma)?
Its TGI is 56.5 µM.

And the TGI (UO-31 renal)?
The TGI was 58.4 µM.

What about the TGI (XF 498 CNS) of the same molecule?
The TGI was 52.8 µM.
